{"source": "patent US20220280526A1", "about": "“AGENT FOR THE TREATMENT OF PSORIASIS” (EBERHARD KARLS UNIVERSITAET TUEBINGEN MEDIZINISCHE FAKULTAET, priority 2019, published 2022)", "key": {"[1]": {"system": "STAT3, EZH2, CDK4 and CDK6 binding to the NFKBIZ promoter region", "assay": "Chromatin immunoprecipitation at the NFKBIZ promoter in IL-36α-stimulated HaCaT cells", "assay_type": "cell-based", "conditions": "30 min IL-36α"}, "[2]": {"system": "IMQ-induced psoriasis-like skin inflammation", "assay": "Imiquimod (IMQ)-mediated psoriasis mouse model, topical treatment of ears", "assay_type": "in vivo, C57BL/6 mice", "procedure": "Experiments were conducted in accordance with the German law guidelines of animal care. […] At day 7, mice were sacrificed and analysed. For IL-36α-mediated psoriasis induction, ears of male C57BL/6 mice (8-12 weeks old) were treated by intradermal injections using 1 μg murine IL-36α (aa 8-160, R&D) or PBS control for 5 consecutive days. […] Inhibitors were topically applicated 6 h before intradermal injections of IL-36α or PBS were applied. Mice were sacrificed and analysed at day 6.\nSample preparation was performed as described. The following anti-mouse antibodies from BioLegend were used: anti-CD45 FITC (103107), anti-CD11 b PacificBlue (101223), anti-Ly6G PE (127607), anti-F4/80 APC (123115), anti-CD11c Pacific Blue (117322), anti-MHC-II APC (107613), anti-CD172α PE (144011) and anti-Silec-H PE (129605). Anti-PDCA-1 APC (17-2092-80) and anti-αβTCR PE (HM3628) were purchased from Invitrogen, and anti-γδ-TCR APC (17-5711-82) from Sigma. Data was acquired on a LSRII flow cytometer (Becton Dickson).\nEar sections from mice were fixed in 10% formalin (Carl Roth) and subsequently embedded in paraffin. 5-μm sections were prepared and incubated with the following antibodies from Cell Signaling: pSTAT3 (9145), pRB (8516) and H3K27me3 (9733). For staining of human skin samples, EZH2 antibody (Cell Signaling, 5246) was used. Antigen retrieval was performed in 1 mM EDTA pH 8.0 for pSTAT3, and 10 mM citrate buffer pH 6.0+0.5% Triton X-100 for EZH2, H3K27me3 and pRB. After incubation with peroxidase-coupled secondary antibodies, sections were stained with DAB substrate."}, "EZH2-STAT3 interaction": {"system": "EZH2-STAT3 interaction", "assay": "Co-immunoprecipitation of EZH2 and STAT3 in HaCaT cells", "assay_type": "cell-based", "conditions": "30 min IL-36α", "procedure": "Cells were lysed by mechanical disruption using standard lysis buffer (50 mM Tris-HCl pH 7.5, 150 mM NaCl, 1% NP-40, lx Protease inhibitor cocktail, Roche). Subsequently, lysates were sonicated for 5 minutes at high power (Bioruptor, Diagenode), followed by pre-clearing of the lysates with protein A/G PLUS agarose beads (Santa Cruz, sc-2003) for 1 h at 4° C. Precleared lysates were incubated either with antibodies specific for CDK4 (Cell Signaling, 12790), CDK6 (Sigma, HPA002637), EZH2 (Cell Signaling, 5246), STAT3 (MA1-13042, Thermo Fisher) or β-Gal antibody (sc-19119, Santa Cruz) as an IgG control, overnight at 4° C. For endogenous IPs immune complexes were precipitated with protein A/G PLUS agarose beads and eluted by 6×SDS-PAGE sample buffer."}, "IκBζ (NFKBIZ) expression": {"system": "IκBζ (NFKBIZ) expression", "assay": "IκBζ expression in cytokine-stimulated primary human keratinocytes (immunoblot, qPCR)", "assay_type": "cell-based", "conditions": "1 h cytokine, abemaciclib 16 μM, palbociclib 50 μM", "quoted_text": "Gene expression analyses were performed as described. Relative gene expression was analyzed using self-designed primers ordered at Metabion (not shown). Relative mRNA levels were calculated by normalization to the human reference gene RPL37A or the mouse reference gene Actin using the 2-ΔΔCt method."}, "EZH2": {"system": "EZH2", "assay": "EZH2 phosphorylation in keratinocytes (immunoblot)", "assay_type": "cell-based, human", "conditions": "IL-36α- or IL-17A/TNFα-treated keratinocytes", "source_text": "HaCaT cells were maintained in DMEM with 10% FCS and antibiotics. Human primary keratinocytes were freshly isolated from foreskin and maintained in CnT-07S medium with gentamycin (CELLnTEC). Recombinant human IL-36α (aa 6-158) and mouse IL-36α (aa 6-160) were purchased from R&D Systems. Recombinant IL-17A (11340174), TNFα (11343013) and IL-1β (11340013) were ordered from Immunotools. Flagellin (vac-fla) and poly I:C (vac-pic) were purchased from Invivogen. In cell culture experiments, the cytokines were used at the following concentrations, as described previously: IL-36α (100 ng/mL), IL-17A (200 ng/mL), TNFα (10 ng/mL) and IL-1β (100 ng/mL). Flagellin was applied at 10 ng/mL and poly(I:C) was added at a final concentration of 100 ng/mL. […] When indicated, cells were starved for 2 h prior to cytokine treatment, by removing cell culture supplements from the growth medium.\nWestern blot analysis was performed as described before. […]"}, "NFKBIZ (IκBζ) promoter": {"system": "NFKBIZ (IκBζ) promoter", "assay": "Luciferase assay of NFKBIZ promoter activity in HaCaT cells", "assay_type": "cell-based", "conditions": "IL-36α-stimulated HaCaT cells, 24 h", "procedure": "Luciferase constructs were generated as described; Muller et al. (2018; loc. Cit.). 1*10^4 HEK293T cells were transfected for 24 h using HBS buffer and CaCl2 and a mixture of 400 ng luciferase vector and 100 ng TK-Renilla vector. For expression of other factors, the following concentrations were used: 70 ng p65, 200 ng cJUN, STAT3 or EZH2 constructs and 500 ng CDK4, CDK6 or cyclin D expression constructs (not shown). For transfection of HaCaT cells, 3*10^5 cells were transfected for 4 h using Lipofectamine 3000 and a mixture of 800 ng luciferase vector, 200 ng TK-Renilla vector and 4 μg expression or control plasmids according to the manufacturer's instructions (Thermo Fisher). 36 h after transfection, luciferase activity was measured with the Dual Luciferase Reporter Assay Kit (Promega). Expression of the reporter constructs was calculated as the fold induction over unstimulated transfected cells from data of three independent experiments."}, "[3]": {"conditions": "flow cytometry of ears at day 7"}}, "note": "Entries after “also recorded” stand apart in the source; their conditions may differ."}
{"substance": "Abemaciclib mesylate", "values": [{"measurement": "recruitment of STAT3/EZH2/CDK4/6 multi-protein complex to the NFKBIZ promoter region", "setting": "[1]", "result": "abrogated"}, {"measurement": "pRB expression in the epidermis (CDK4/6 inhibition)", "setting": "[2]; ear skin sections of treated mice", "result": "loss of pRB"}, {"measurement": "immune cell infiltration (neutrophils, macrophages, T cells)", "setting": "[2]; [3]", "result": "significantly suppressed"}, {"measurement": "number of infiltrating plasmacytoid (pDC) and myeloid dendritic cells (mDC)", "setting": "[2]; [3]", "result": "significantly suppressed"}, {"measurement": "IκBζ expression, phosphorylation of EZH2 at T345 and of STAT3 at Y705 in the skin", "setting": "[2]; immunoblot of skin tissue at day 7", "result": "completely abrogated"}, {"measurement": "expression of IκBζ target genes (Cxcl2, Cxcl5) and cytokines (Il17a, Il23a) in skin", "setting": "[2]; qPCR of skin samples at day 7", "result": "significantly downregulated"}, {"measurement": "psoriasis-like skin inflammation (ear thickening, keratinocyte hyperproliferation, immune cell infiltration)", "setting": "[2]; topical daily for 6 days with IMQ, abemaciclib 0.02 mg, CPI-169 0.05 mg per ear/day, analysed day 7", "result": "completely suppressed"}, {"measurement": "skin penetration of topically applied inhibitor", "setting": "[2]; topical on mouse ear skin", "result": "effectively penetrated"}, {"measurement": "interaction of EZH2 with STAT3", "setting": "EZH2-STAT3 interaction", "result": "abrogate"}, {"measurement": "IL-36α- or IL-17A/TNFα-mediated induction of IκBζ expression", "setting": "IκBζ (NFKBIZ) expression", "result": "completely blocked; also recorded: abolished"}, {"measurement": "inducible phosphorylation of EZH2 at threonine 345 (T345)", "setting": "EZH2", "result": "completely abrogated"}, {"measurement": "expression of luciferase construct harboring the NFKBIZ (IκBζ) promoter", "setting": "NFKBIZ (IκBζ) promoter", "result": "abrogated"}]}
